# Laboratory results reported in PubChem BioAssay (NCI).
#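 Values below derive from 48-hour exposures of cells grown in 96-well plates, with endpoints linearly interpolated between the two concentrations bracketing the appropriate inhibition level. TGI: total growth inhibition.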
# Key:
# Assay in all cases: DTP human tumour cell line panel, 48 h
# MCF7 breast = test system: MCF7 breast
# K-562 leukemia = test system: K-562 leukemia
# DU-145 prostate = test system: DU-145 prostate
# OVCAR-3 ovarian = test system: OVCAR-3 ovarian
# RXF 393 renal = test system: RXF 393 renal
# SNB-19 CNS = test system: SNB-19 CNS
# CCRF-CEM leukemia = test system: CCRF-CEM leukemia
# M14 melanoma = test system: M14 melanoma
# RPMI-8226 leukemia = test system: RPMI-8226 leukemia
# NCI-H460 lung = test system: NCI-H460 lung
# OVCAR-8 ovarian = test system: OVCAR-8 ovarian
# OVCAR-5 ovarian = test system: OVCAR-5 ovarian
# SK-OV-3 ovarian = test system: SK-OV-3 ovarian
# SN12C renal = test system: SN12C renal
# KM12 colon = test system: KM12 colon
# MOLT-4 leukemia = test system: MOLT-4 leukemia
# NCI-H23 lung = test system: NCI-H23 lung
# UACC-62 melanoma = test system: UACC-62 melanoma
# HCT-15 colon = test system: HCT-15 colon
# HL-60(TB) leukemia = test system: HL-60(TB) leukemia
# BT-549 breast = test system: BT-549 breast
# COLO 205 colon = test system: COLO 205 colon
# UO-31 renal = test system: UO-31 renal
# IGROV1 ovarian = test system: IGROV1 ovarian
# PC-3 prostate = test system: PC-3 prostate
# SF-268 CNS = test system: SF-268 CNS
# HOP-92 NSCLC = test system: HOP-92 NSCLC
# HT29 colon = test system: HT29 colon
# SK-MEL-5 melanoma = test system: SK-MEL-5 melanoma
# T-47D breast = test system: T-47D breast
# HCC-2998 colon = test system: HCC-2998 colon
# NCI/ADR-RES ovarian = test system: NCI/ADR-RES ovarian
# MDA-N = test system: MDA-N
# HOP-62 NSCLC = test system: HOP-62 NSCLC
# MDA-MB-435 = test system: MDA-MB-435
# SF-295 CNS = test system: SF-295 CNS
# SR leukemia = test system: SR leukemia
# TK-10 renal = test system: TK-10 renal
# OVCAR-4 ovarian = test system: OVCAR-4 ovarian
# U251 CNS = test system: U251 CNS
# A549 NSCLC = test system: A549 NSCLC
# MDA-MB-231 breast = test system: MDA-MB-231 breast
# NCI-H522 lung = test system: NCI-H522 lung
# SF-539 CNS = test system: SF-539 CNS
# HCT-116 colon = test system: HCT-116 colon
# UACC-257 melanoma = test system: UACC-257 melanoma
# SW-620 colon = test system: SW-620 colon
# SK-MEL-28 melanoma = test system: SK-MEL-28 melanoma
# 786-0 renal = test system: 786-0 renal
# LOX IMVI melanoma = test system: LOX IMVI melanoma
# CAKI-1 renal = test system: CAKI-1 renal
# A498 renal = test system: A498 renal
# EKVX NSCLC = test system: EKVX NSCLC
# ACHN renal = test system: ACHN renal
# SNB-75 CNS = test system: SNB-75 CNS
# NCI-H226 lung = test system: NCI-H226 lung
# MALME-3M melanoma = test system: MALME-3M melanoma
# SK-MEL-2 melanoma = test system: SK-MEL-2 melanoma
# HS 578T breast = test system: HS 578T breast
compound,measurement,setting,value
COc1cccc(-c2nc(-c3cnccn3)n(COCCO)n2)c1,TGI,MCF7 breast,> 100 µM
same,TGI,K-562 leukemia,> 100 µM
same,TGI,DU-145 prostate,> 100 µM
same,TGI,OVCAR-3 ovarian,> 100 µM
same,TGI,RXF 393 renal,> 100 µM
same,TGI,SNB-19 CNS,> 100 µM
same,TGI,CCRF-CEM leukemia,> 100 µM
same,TGI,M14 melanoma,> 100 µM
same,TGI,RPMI-8226 leukemia,> 100 µM
same,TGI,NCI-H460 lung,> 100 µM
same,TGI,OVCAR-8 ovarian,> 100 µM
same,TGI,OVCAR-5 ovarian,> 100 µM
same,TGI,SK-OV-3 ovarian,> 100 µM
same,TGI,SN12C renal,> 100 µM
same,TGI,KM12 colon,> 100 µM
same,TGI,MOLT-4 leukemia,> 100 µM
same,TGI,NCI-H23 lung,> 100 µM
same,TGI,UACC-62 melanoma,> 100 µM
same,TGI,HCT-15 colon,> 100 µM
same,TGI,HL-60(TB) leukemia,> 100 µM
same,TGI,BT-549 breast,> 100 µM
same,TGI,COLO 205 colon,> 100 µM
same,TGI,UO-31 renal,> 100 µM
same,TGI,IGROV1 ovarian,> 100 µM
same,TGI,PC-3 prostate,> 100 µM
same,TGI,SF-268 CNS,> 100 µM
same,TGI,HOP-92 NSCLC,> 100 µM
same,TGI,HT29 colon,> 100 µM
same,TGI,SK-MEL-5 melanoma,> 100 µM
same,TGI,T-47D breast,> 100 µM
same,TGI,HCC-2998 colon,> 100 µM
same,TGI,NCI/ADR-RES ovarian,> 100 µM
same,TGI,MDA-N,> 100 µM
same,TGI,HOP-62 NSCLC,> 100 µM
same,TGI,MDA-MB-435,> 100 µM
same,TGI,SF-295 CNS,> 100 µM
same,TGI,SR leukemia,> 100 µM
same,TGI,TK-10 renal,> 100 µM
same,TGI,OVCAR-4 ovarian,> 100 µM
same,TGI,U251 CNS,> 100 µM
same,TGI,A549 NSCLC,> 100 µM
same,TGI,MDA-MB-231 breast,> 100 µM
same,TGI,NCI-H522 lung,> 100 µM
same,TGI,SF-539 CNS,> 100 µM
same,TGI,HCT-116 colon,> 100 µM
same,TGI,UACC-257 melanoma,> 100 µM
same,TGI,SW-620 colon,> 100 µM
same,TGI,SK-MEL-28 melanoma,> 100 µM
same,TGI,786-0 renal,> 100 µM
same,TGI,LOX IMVI melanoma,> 100 µM
COc1cc(C2C(Cl)C(=O)N2NC(=O)c2ccc(NC(C)=O)cc2OC)ccc1O (centres undefined),TGI,MCF7 breast,38.1 µM
same,TGI,K-562 leukemia,55.2 µM
same,TGI,DU-145 prostate,43.5 µM
same,TGI,OVCAR-3 ovarian,53.5 µM
same,TGI,RXF 393 renal,47.4 µM
same,TGI,SNB-19 CNS,47.4 µM
same,TGI,CAKI-1 renal,94 µM
same,TGI,CCRF-CEM leukemia,14.6 µM
same,TGI,M14 melanoma,33.9 µM
same,TGI,RPMI-8226 leukemia,13.4 µM
same,TGI,OVCAR-8 ovarian,73.3 µM
same,TGI,OVCAR-5 ovarian,28.4 µM
same,TGI,A498 renal,37.5 µM
same,TGI,SK-OV-3 ovarian,> 100 µM
same,TGI,SN12C renal,35 µM
same,TGI,KM12 colon,68 µM
same,TGI,MOLT-4 leukemia,22.1 µM
same,TGI,NCI-H23 lung,39.8 µM
same,TGI,UACC-62 melanoma,36.2 µM
same,TGI,HCT-15 colon,40.6 µM
same,TGI,HL-60(TB) leukemia,44.8 µM
same,TGI,BT-549 breast,33.9 µM
same,TGI,COLO 205 colon,32 µM
same,TGI,UO-31 renal,95.5 µM
same,TGI,EKVX NSCLC,29.2 µM
same,TGI,IGROV1 ovarian,79.7 µM
same,TGI,PC-3 prostate,55 µM
same,TGI,SF-268 CNS,61.5 µM
same,TGI,HOP-92 NSCLC,31.3 µM
same,TGI,HT29 colon,34.1 µM
same,TGI,SK-MEL-5 melanoma,29.4 µM
same,TGI,T-47D breast,52.2 µM
same,TGI,ACHN renal,50.2 µM
same,TGI,NCI/ADR-RES ovarian,> 100 µM
same,TGI,MDA-N,50.7 µM
same,TGI,SNB-75 CNS,80.1 µM
same,TGI,MDA-MB-435,> 100 µM
same,TGI,SF-295 CNS,> 100 µM
same,TGI,NCI-H226 lung,43.7 µM
same,TGI,SR leukemia,> 100 µM
same,TGI,OVCAR-4 ovarian,> 100 µM
same,TGI,A549 NSCLC,> 100 µM
same,TGI,NCI-H522 lung,23 µM
same,TGI,SF-539 CNS,48.1 µM
same,TGI,HCT-116 colon,33.2 µM
same,TGI,SW-620 colon,76.3 µM
same,TGI,MALME-3M melanoma,53.6 µM
same,TGI,SK-MEL-2 melanoma,29.9 µM
same,TGI,SK-MEL-28 melanoma,97.8 µM
same,TGI,786-0 renal,33.3 µM
same,TGI,LOX IMVI melanoma,26.4 µM
COc1cc(C(=O)Oc2c(C#N)sc3c2c(=O)n(-c2ccccc2)c(=S)n3-c2ccccc2)cc(OC)c1OC,TGI,MCF7 breast,57.1 µM
same,TGI,K-562 leukemia,82.2 µM
same,TGI,DU-145 prostate,42.3 µM
same,TGI,OVCAR-3 ovarian,> 100 µM
same,TGI,RXF 393 renal,47.9 µM
same,TGI,SNB-19 CNS,72 µM
same,TGI,CAKI-1 renal,84.3 µM
same,TGI,CCRF-CEM leukemia,28.9 µM
same,TGI,M14 melanoma,25.6 µM
same,TGI,RPMI-8226 leukemia,28.2 µM
same,TGI,NCI-H460 lung,68.1 µM
same,TGI,OVCAR-8 ovarian,59.2 µM
same,TGI,OVCAR-5 ovarian,46.7 µM
same,TGI,A498 renal,19.6 µM
same,TGI,SK-OV-3 ovarian,> 100 µM
same,TGI,SN12C renal,32.3 µM
same,TGI,KM12 colon,39.7 µM
same,TGI,MOLT-4 leukemia,40.6 µM
same,TGI,NCI-H23 lung,38.9 µM
same,TGI,UACC-62 melanoma,54.7 µM
same,TGI,HS 578T breast,42.5 µM
same,TGI,HCT-15 colon,43 µM
same,TGI,HL-60(TB) leukemia,41.3 µM
same,TGI,COLO 205 colon,30.7 µM
same,TGI,EKVX NSCLC,42.2 µM
same,TGI,IGROV1 ovarian,41 µM
same,TGI,PC-3 prostate,> 100 µM
same,TGI,SF-268 CNS,84.2 µM
same,TGI,HOP-92 NSCLC,64.4 µM
same,TGI,HT29 colon,22.4 µM
same,TGI,SK-MEL-5 melanoma,31.6 µM
same,TGI,T-47D breast,> 100 µM
same,TGI,ACHN renal,> 100 µM
same,TGI,HCC-2998 colon,45.2 µM
same,TGI,NCI/ADR-RES ovarian,41.3 µM
same,TGI,MDA-N,> 100 µM
same,TGI,HOP-62 NSCLC,48.3 µM
same,TGI,SNB-75 CNS,50.3 µM
same,TGI,MDA-MB-435,36.8 µM
same,TGI,SF-295 CNS,27.9 µM
same,TGI,NCI-H226 lung,32.7 µM
same,TGI,SR leukemia,> 100 µM
same,TGI,TK-10 renal,95.9 µM
same,TGI,OVCAR-4 ovarian,80.9 µM
same,TGI,U251 CNS,45.9 µM
same,TGI,A549 NSCLC,95.3 µM
same,TGI,MDA-MB-231 breast,77.9 µM
same,TGI,NCI-H522 lung,2.11 µM
same,TGI,SF-539 CNS,24.1 µM
same,TGI,HCT-116 colon,35.5 µM
same,TGI,UACC-257 melanoma,> 100 µM
same,TGI,SW-620 colon,68 µM
same,TGI,MALME-3M melanoma,28 µM
same,TGI,SK-MEL-28 melanoma,46.3 µM
same,TGI,786-0 renal,> 100 µM
same,TGI,LOX IMVI melanoma,51.6 µM
Cc1ccc(S(=O)(=O)NCCCSCCSCCCN)cc1,TGI,MCF7 breast,> 100 µM
same,TGI,K-562 leukemia,> 100 µM
same,TGI,DU-145 prostate,> 100 µM
same,TGI,OVCAR-3 ovarian,> 100 µM
same,TGI,RXF 393 renal,> 100 µM
same,TGI,SNB-19 CNS,> 100 µM
same,TGI,CCRF-CEM leukemia,> 100 µM
same,TGI,M14 melanoma,> 100 µM
same,TGI,NCI-H460 lung,> 100 µM
same,TGI,OVCAR-8 ovarian,> 100 µM
same,TGI,A498 renal,> 100 µM
same,TGI,SK-OV-3 ovarian,> 100 µM
same,TGI,SN12C renal,> 100 µM
same,TGI,KM12 colon,> 100 µM
same,TGI,MOLT-4 leukemia,> 100 µM
same,TGI,NCI-H23 lung,> 100 µM
same,TGI,HS 578T breast,> 100 µM
same,TGI,HCT-15 colon,> 100 µM
same,TGI,HL-60(TB) leukemia,> 100 µM
same,TGI,COLO 205 colon,> 100 µM
same,TGI,UO-31 renal,> 100 µM
same,TGI,PC-3 prostate,> 100 µM
same,TGI,SF-268 CNS,> 100 µM
same,TGI,HOP-92 NSCLC,> 100 µM
same,TGI,HT29 colon,> 100 µM
same,TGI,SK-MEL-5 melanoma,> 100 µM
same,TGI,T-47D breast,> 100 µM
same,TGI,ACHN renal,> 100 µM
same,TGI,HCC-2998 colon,> 100 µM
same,TGI,NCI/ADR-RES ovarian,> 100 µM
same,TGI,MDA-N,> 100 µM
same,TGI,SNB-75 CNS,> 100 µM
same,TGI,MDA-MB-435,> 100 µM
same,TGI,SF-295 CNS,> 100 µM
same,TGI,NCI-H226 lung,> 100 µM
same,TGI,SR leukemia,> 100 µM
same,TGI,TK-10 renal,> 100 µM
same,TGI,OVCAR-4 ovarian,> 100 µM
same,TGI,U251 CNS,> 100 µM
same,TGI,A549 NSCLC,> 100 µM
same,TGI,MDA-MB-231 breast,> 100 µM
same,TGI,NCI-H522 lung,> 100 µM
same,TGI,HCT-116 colon,> 100 µM
same,TGI,UACC-257 melanoma,> 100 µM
same,TGI,SW-620 colon,> 100 µM
same,TGI,SK-MEL-28 melanoma,> 100 µM
same,TGI,LOX IMVI melanoma,> 100 µM
